# Calls of active or inactive are those of the source. The calls are words filed in the database; no cut-off is given here.
# Experiments:
# Type in all cases: functional, organism-based
# Conditions in all cases: Trachea
# Pseudomonas aeruginosa [1] = experiment: Antimicrobial activity against Pseudomonas aeruginosa 2A5 tracheal isolates from mechanically ventilated chronic respiratory insufficiency patient
# Pseudomonas aeruginosa [2] = experiment: Antimicrobial activity against Pseudomonas aeruginosa 13D3 tracheal isolates from mechanically ventilated chronic respiratory insufficiency patient
# Pseudomonas aeruginosa [3] = experiment: Antimicrobial activity against Pseudomonas aeruginosa 19B1 tracheal isolates from mechanically ventilated chronic respiratory insufficiency patient
# Pseudomonas aeruginosa [4] = experiment: Antimicrobial activity against Pseudomonas aeruginosa 15G10 tracheal isolates from mechanically ventilated chronic respiratory insufficiency patient
# Pseudomonas aeruginosa [5] = experiment: Antimicrobial activity against Pseudomonas aeruginosa 12B2 tracheal isolates from mechanically ventilated chronic respiratory insufficiency patient
# Pseudomonas aeruginosa [6] = experiment: Antimicrobial activity against Pseudomonas aeruginosa 12A7 tracheal isolates from mechanically ventilated chronic respiratory insufficiency patient
# Pseudomonas aeruginosa [7] = experiment: Antimicrobial activity against Pseudomonas aeruginosa IA5 tracheal isolates from mechanically ventilated tuberculosis patient
# Pseudomonas aeruginosa [8] = experiment: Antimicrobial activity against Pseudomonas aeruginosa 19E9 tracheal isolates from mechanically ventilated chronic respiratory insufficiency patient
# Pseudomonas aeruginosa [9] = experiment: Antimicrobial activity against Pseudomonas aeruginosa 9A3 tracheal isolates from mechanically ventilated chronic respiratory insufficiency patient
# Pseudomonas aeruginosa [10] = experiment: Antimicrobial activity against Pseudomonas aeruginosa 65.38-2 tracheal isolates from mechanically ventilated tuberculosis patient
# Pseudomonas aeruginosa [11] = experiment: Antimicrobial activity against Pseudomonas aeruginosa 13D6 tracheal isolates from mechanically ventilated chronic respiratory insufficiency patient
# Pseudomonas aeruginosa [12] = experiment: Antimicrobial activity against Pseudomonas aeruginosa 29H1 tracheal isolates from mechanically ventilated chronic respiratory insufficiency patient
# Pseudomonas aeruginosa [13] = experiment: Antimicrobial activity against Pseudomonas aeruginosa 22C5 tracheal isolates from mechanically ventilated chronic respiratory insufficiency patient
# Pseudomonas aeruginosa [14] = experiment: Antimicrobial activity against Pseudomonas aeruginosa 19D9 tracheal isolates from mechanically ventilated chronic respiratory insufficiency patient
# Pseudomonas aeruginosa [15] = experiment: Antimicrobial activity against Pseudomonas aeruginosa 19C5 tracheal isolates from mechanically ventilated chronic respiratory insufficiency patient
# Pseudomonas aeruginosa [16] = experiment: Antimicrobial activity against Pseudomonas aeruginosa 24D1 tracheal isolates from mechanically ventilated chronic respiratory insufficiency patient
# Pseudomonas aeruginosa [17] = experiment: Antimicrobial activity against Pseudomonas aeruginosa 19F1 tracheal isolates from mechanically ventilated chronic respiratory insufficiency patient
# Pseudomonas aeruginosa [18] = experiment: Antimicrobial activity against Pseudomonas aeruginosa 2A1 tracheal isolates from mechanically ventilated tuberculosis patient
# Pseudomonas aeruginosa [19] = experiment: Antimicrobial activity against Pseudomonas aeruginosa 65.38-4 tracheal isolates from mechanically ventilated tuberculosis patient
# Pseudomonas aeruginosa [20] = experiment: Antimicrobial activity against Pseudomonas aeruginosa 65.33-3 tracheal isolates from mechanically ventilated tuberculosis patient
# Pseudomonas aeruginosa [21] = experiment: Antimicrobial activity against Pseudomonas aeruginosa 9B2 tracheal isolates from mechanically ventilated chronic respiratory insufficiency patient
# Pseudomonas aeruginosa [22] = experiment: Antimicrobial activity against Pseudomonas aeruginosa 24E6 tracheal isolates from mechanically ventilated chronic respiratory insufficiency patient
# Pseudomonas aeruginosa [23] = experiment: Antimicrobial activity against Pseudomonas aeruginosa 24F4 tracheal isolates from mechanically ventilated chronic respiratory insufficiency patient
# Pseudomonas aeruginosa [24] = experiment: Antimicrobial activity against Pseudomonas aeruginosa 23C5 tracheal isolates from mechanically ventilated chronic respiratory insufficiency patient
# Pseudomonas aeruginosa [25] = experiment: Antimicrobial activity against Pseudomonas aeruginosa 19F2 tracheal isolates from mechanically ventilated chronic respiratory insufficiency patient
# Pseudomonas aeruginosa [26] = experiment: Antimicrobial activity against Pseudomonas aeruginosa 19E12 tracheal isolates from mechanically ventilated chronic respiratory insufficiency patient
# Pseudomonas aeruginosa [27] = experiment: Antimicrobial activity against Pseudomonas aeruginosa 12A3 tracheal isolates from mechanically ventilated chronic respiratory insufficiency patient
# Pseudomonas aeruginosa [28] = experiment: Antimicrobial activity against Pseudomonas aeruginosa 3D10 tracheal isolates from mechanically ventilated chronic respiratory insufficiency patient
# Pseudomonas aeruginosa [29] = experiment: Antimicrobial activity against Pseudomonas aeruginosa 24E2 tracheal isolates from mechanically ventilated chronic respiratory insufficiency patient
# Pseudomonas aeruginosa [30] = experiment: Antimicrobial activity against Pseudomonas aeruginosa 15H5 tracheal isolates from mechanically ventilated chronic respiratory insufficiency patient
# Pseudomonas aeruginosa [31] = experiment: Antimicrobial activity against Pseudomonas aeruginosa 24D5 tracheal isolates from mechanically ventilated chronic respiratory insufficiency patient
# Pseudomonas aeruginosa [32] = experiment: Antimicrobial activity against Pseudomonas aeruginosa 19E1 tracheal isolates from mechanically ventilated chronic respiratory insufficiency patient
# Pseudomonas aeruginosa [33] = experiment: Antimicrobial activity against Pseudomonas aeruginosa 5H6 tracheal isolates from mechanically ventilated chronic respiratory insufficiency patient
# Pseudomonas aeruginosa [34] = experiment: Antimicrobial activity against Pseudomonas aeruginosa 24E1 tracheal isolates from mechanically ventilated chronic respiratory insufficiency patient
# Pseudomonas aeruginosa [35] = experiment: Antimicrobial activity against Pseudomonas aeruginosa 65.38-3 tracheal isolates from mechanically ventilated tuberculosis patient
# Pseudomonas aeruginosa [36] = experiment: Antimicrobial activity against Pseudomonas aeruginosa 16D2 tracheal isolates from mechanically ventilated chronic respiratory insufficiency patient
# Pseudomonas aeruginosa [37] = experiment: Antimicrobial activity against Pseudomonas aeruginosa 19C12 tracheal isolates from mechanically ventilated chronic respiratory insufficiency patient
# Pseudomonas aeruginosa [38] = experiment: Antimicrobial activity against Pseudomonas aeruginosa 8A2 tracheal isolates from mechanically ventilated chronic respiratory insufficiency patient
# Pseudomonas aeruginosa [39] = experiment: Antimicrobial activity against Pseudomonas aeruginosa 19D10 tracheal isolates from mechanically ventilated chronic respiratory insufficiency patient
# Pseudomonas aeruginosa [40] = experiment: Antimicrobial activity against Pseudomonas aeruginosa 19C2 tracheal isolates from mechanically ventilated chronic respiratory insufficiency patient
# Pseudomonas aeruginosa [41] = experiment: Antimicrobial activity against Pseudomonas aeruginosa 13D11 tracheal isolates from mechanically ventilated chronic respiratory insufficiency patient
# Pseudomonas aeruginosa [42] = experiment: Antimicrobial activity against Pseudomonas aeruginosa 65.36-1 tracheal isolates from mechanically ventilated tuberculosis patient
# Pseudomonas aeruginosa [43] = experiment: Antimicrobial activity against Pseudomonas aeruginosa 2B5 tracheal isolates from mechanically ventilated tuberculosis patient
# Pseudomonas aeruginosa [44] = experiment: Antimicrobial activity against Pseudomonas aeruginosa 65.18-1 tracheal isolates from mechanically ventilated tuberculosis patient
# Pseudomonas aeruginosa [45] = experiment: Antimicrobial activity against Pseudomonas aeruginosa IC7 tracheal isolates from mechanically ventilated tuberculosis patient
# Pseudomonas aeruginosa [46] = experiment: Antimicrobial activity against Pseudomonas aeruginosa 65.18-3 tracheal isolates from mechanically ventilated tuberculosis patient
# Pseudomonas aeruginosa [47] = experiment: Antimicrobial activity against Pseudomonas aeruginosa 65.18-2 tracheal isolates from mechanically ventilated tuberculosis patient
molecule,measurement,setting,value
NCC[C@H](O)C(=O)N[C@@H]1C[C@H](N)[C@@H](O[C@H]2O[C@H](CN)[C@@H](O)[C@H](O)[C@H]2O)[C@H](O)[C@H]1O[C@H]1O[C@H](CO)[C@@H](O)[C@H](N)[C@H]1O,Activity,Pseudomonas aeruginosa [1],Active
same,Activity,Pseudomonas aeruginosa [2],Active
same,Activity,Pseudomonas aeruginosa [3],Active
same,Activity,Pseudomonas aeruginosa [4],Active
same,Activity,Pseudomonas aeruginosa [5],Active
same,Activity,Pseudomonas aeruginosa [6],Active
same,Activity,Pseudomonas aeruginosa [7],Active
same,Activity,Pseudomonas aeruginosa [8],Active
same,Activity,Pseudomonas aeruginosa [9],Active
same,Activity,Pseudomonas aeruginosa [10],inactive
same,Activity,Pseudomonas aeruginosa [11],Active
same,Activity,Pseudomonas aeruginosa [12],Active
same,Activity,Pseudomonas aeruginosa [13],Active
same,Activity,Pseudomonas aeruginosa [14],Active
same,Activity,Pseudomonas aeruginosa [15],Active
same,Activity,Pseudomonas aeruginosa [16],Active
same,Antimicrobial activity,Pseudomonas aeruginosa [17],Active
same,Activity,Pseudomonas aeruginosa [18],Active
same,Activity,Pseudomonas aeruginosa [19],inactive
same,Activity,Pseudomonas aeruginosa [20],inactive
same,Activity,Pseudomonas aeruginosa [21],Active
same,Activity,Pseudomonas aeruginosa [22],Active
same,Activity,Pseudomonas aeruginosa [23],Active
same,Activity,Pseudomonas aeruginosa [24],Active
same,Activity,Pseudomonas aeruginosa [25],Active
same,Activity,Pseudomonas aeruginosa [26],Active
same,Activity,Pseudomonas aeruginosa [27],Active
same,Activity,Pseudomonas aeruginosa [28],Active
same,Activity,Pseudomonas aeruginosa [29],Active
same,Activity,Pseudomonas aeruginosa [30],Active
same,Activity,Pseudomonas aeruginosa [31],Active
same,Activity,Pseudomonas aeruginosa [32],Active
same,Activity,Pseudomonas aeruginosa [33],Active
same,Activity,Pseudomonas aeruginosa [34],Active
same,Activity,Pseudomonas aeruginosa [35],inactive
same,Activity,Pseudomonas aeruginosa [36],Active
same,Activity,Pseudomonas aeruginosa [37],Active
same,Activity,Pseudomonas aeruginosa [38],Active
same,Activity,Pseudomonas aeruginosa [39],Active
same,Activity,Pseudomonas aeruginosa [40],Active
same,Activity,Pseudomonas aeruginosa [41],Active
GENTAMICIN,Activity,Pseudomonas aeruginosa [1],Active
same,Activity,Pseudomonas aeruginosa [2],Active
same,Activity,Pseudomonas aeruginosa [3],Active
same,Activity,Pseudomonas aeruginosa [4],Active
same,Activity,Pseudomonas aeruginosa [5],Active
same,Activity,Pseudomonas aeruginosa [6],Active
same,Activity,Pseudomonas aeruginosa [8],Active
same,Activity,Pseudomonas aeruginosa [42],inactive
same,Activity,Pseudomonas aeruginosa [9],Active
same,Activity,Pseudomonas aeruginosa [10],inactive
same,Activity,Pseudomonas aeruginosa [11],Active
same,Activity,Pseudomonas aeruginosa [12],Active
same,Activity,Pseudomonas aeruginosa [13],Active
same,Activity,Pseudomonas aeruginosa [14],Active
same,Activity,Pseudomonas aeruginosa [15],Active
same,Antimicrobial activity,Pseudomonas aeruginosa [17],Active
same,Activity,Pseudomonas aeruginosa [19],inactive
same,Activity,Pseudomonas aeruginosa [20],inactive
same,Activity,Pseudomonas aeruginosa [21],Active
same,Activity,Pseudomonas aeruginosa [22],Active
same,Activity,Pseudomonas aeruginosa [24],Active
same,Activity,Pseudomonas aeruginosa [25],Active
same,Activity,Pseudomonas aeruginosa [26],Active
same,Activity,Pseudomonas aeruginosa [27],Active
same,Activity,Pseudomonas aeruginosa [28],Active
same,Activity,Pseudomonas aeruginosa [29],Active
same,Activity,Pseudomonas aeruginosa [30],Active
same,Activity,Pseudomonas aeruginosa [31],Active
same,Activity,Pseudomonas aeruginosa [32],Active
same,Activity,Pseudomonas aeruginosa [33],Active
same,Activity,Pseudomonas aeruginosa [34],Active
same,Activity,Pseudomonas aeruginosa [35],inactive
same,Activity,Pseudomonas aeruginosa [36],Active
same,Activity,Pseudomonas aeruginosa [37],Active
same,Activity,Pseudomonas aeruginosa [38],Active
same,Activity,Pseudomonas aeruginosa [39],Active
same,Activity,Pseudomonas aeruginosa [40],Active
same,Activity,Pseudomonas aeruginosa [41],Active
CC(C)(O/N=C(\C(=O)N[C@@H]1C(=O)N2C(C(=O)[O-])=C(C[n+]3ccccc3)CS[C@H]12)c1csc(N)n1)C(=O)O,Activity,Pseudomonas aeruginosa [1],Active
same,Activity,Pseudomonas aeruginosa [2],Active
same,Activity,Pseudomonas aeruginosa [3],Active
same,Activity,Pseudomonas aeruginosa [4],Active
same,Activity,Pseudomonas aeruginosa [5],Active
same,Activity,Pseudomonas aeruginosa [6],Active
same,Activity,Pseudomonas aeruginosa [43],Active
same,Activity,Pseudomonas aeruginosa [7],Active
same,Activity,Pseudomonas aeruginosa [8],Active
same,Activity,Pseudomonas aeruginosa [42],Active
same,Activity,Pseudomonas aeruginosa [9],Active
same,Activity,Pseudomonas aeruginosa [11],Active
same,Activity,Pseudomonas aeruginosa [13],Active
same,Activity,Pseudomonas aeruginosa [14],Active
same,Activity,Pseudomonas aeruginosa [16],Active
same,Antimicrobial activity,Pseudomonas aeruginosa [17],Active
same,Activity,Pseudomonas aeruginosa [21],Active
same,Activity,Pseudomonas aeruginosa [22],Active
same,Activity,Pseudomonas aeruginosa [23],Active
same,Activity,Pseudomonas aeruginosa [24],Active
same,Activity,Pseudomonas aeruginosa [25],Active
same,Activity,Pseudomonas aeruginosa [26],Active
same,Activity,Pseudomonas aeruginosa [27],Active
same,Activity,Pseudomonas aeruginosa [28],Active
same,Activity,Pseudomonas aeruginosa [29],Active
same,Activity,Pseudomonas aeruginosa [30],Active
same,Activity,Pseudomonas aeruginosa [31],Active
same,Activity,Pseudomonas aeruginosa [32],Active
same,Activity,Pseudomonas aeruginosa [44],Active
same,Activity,Pseudomonas aeruginosa [33],Active
same,Activity,Pseudomonas aeruginosa [34],Active
same,Activity,Pseudomonas aeruginosa [35],inactive
same,Activity,Pseudomonas aeruginosa [36],Active
same,Activity,Pseudomonas aeruginosa [37],Active
same,Activity,Pseudomonas aeruginosa [38],Active
same,Activity,Pseudomonas aeruginosa [39],Active
same,Activity,Pseudomonas aeruginosa [40],Active
same,Activity,Pseudomonas aeruginosa [45],Active
same,Activity,Pseudomonas aeruginosa [46],Active
same,Activity,Pseudomonas aeruginosa [41],Active
same,Activity,Pseudomonas aeruginosa [47],Active
C[C@@H](O)[C@H]1C(=O)N2C(C(=O)O)=C(SCCNC=N)C[C@H]12,Activity,Pseudomonas aeruginosa [1],Active
same,Activity,Pseudomonas aeruginosa [2],Active
same,Activity,Pseudomonas aeruginosa [3],Active
same,Activity,Pseudomonas aeruginosa [4],Active
same,Activity,Pseudomonas aeruginosa [5],Active
same,Activity,Pseudomonas aeruginosa [6],Active
same,Activity,Pseudomonas aeruginosa [43],inactive
same,Activity,Pseudomonas aeruginosa [8],Active
same,Activity,Pseudomonas aeruginosa [42],inactive
same,Activity,Pseudomonas aeruginosa [9],Active
same,Activity,Pseudomonas aeruginosa [10],inactive
same,Activity,Pseudomonas aeruginosa [11],Active
same,Activity,Pseudomonas aeruginosa [13],Active
same,Activity,Pseudomonas aeruginosa [14],Active
same,Antimicrobial activity,Pseudomonas aeruginosa [17],Active
same,Activity,Pseudomonas aeruginosa [18],inactive
same,Activity,Pseudomonas aeruginosa [20],inactive
same,Activity,Pseudomonas aeruginosa [21],Active
same,Activity,Pseudomonas aeruginosa [22],Active
same,Activity,Pseudomonas aeruginosa [23],Active
same,Activity,Pseudomonas aeruginosa [24],Active
same,Activity,Pseudomonas aeruginosa [25],Active
same,Activity,Pseudomonas aeruginosa [26],Active
same,Activity,Pseudomonas aeruginosa [27],Active
same,Activity,Pseudomonas aeruginosa [28],Active
same,Activity,Pseudomonas aeruginosa [29],Active
same,Activity,Pseudomonas aeruginosa [30],Active
same,Activity,Pseudomonas aeruginosa [31],Active
same,Activity,Pseudomonas aeruginosa [32],Active
same,Activity,Pseudomonas aeruginosa [44],Active
same,Activity,Pseudomonas aeruginosa [33],Active
same,Activity,Pseudomonas aeruginosa [34],Active
same,Activity,Pseudomonas aeruginosa [35],inactive
same,Activity,Pseudomonas aeruginosa [36],Active
same,Activity,Pseudomonas aeruginosa [37],Active
same,Activity,Pseudomonas aeruginosa [38],Active
same,Activity,Pseudomonas aeruginosa [39],Active
same,Activity,Pseudomonas aeruginosa [40],Active
same,Activity,Pseudomonas aeruginosa [45],inactive
same,Activity,Pseudomonas aeruginosa [46],inactive
same,Activity,Pseudomonas aeruginosa [41],Active
same,Activity,Pseudomonas aeruginosa [47],Active

# Reference: ChEMBL document CHEMBL1147101, “Development and persistence of antimicrobial resistance in Pseudomonas aeruginosa: a longitudinal observation in mechanically ventilated patients” (Antimicrob Agents Chemother, 2007)
